The target in test [1] is T1, GST-ALK5 (Homo sapiens, UniProt P36897).
T1 sequence (P36897 34-503): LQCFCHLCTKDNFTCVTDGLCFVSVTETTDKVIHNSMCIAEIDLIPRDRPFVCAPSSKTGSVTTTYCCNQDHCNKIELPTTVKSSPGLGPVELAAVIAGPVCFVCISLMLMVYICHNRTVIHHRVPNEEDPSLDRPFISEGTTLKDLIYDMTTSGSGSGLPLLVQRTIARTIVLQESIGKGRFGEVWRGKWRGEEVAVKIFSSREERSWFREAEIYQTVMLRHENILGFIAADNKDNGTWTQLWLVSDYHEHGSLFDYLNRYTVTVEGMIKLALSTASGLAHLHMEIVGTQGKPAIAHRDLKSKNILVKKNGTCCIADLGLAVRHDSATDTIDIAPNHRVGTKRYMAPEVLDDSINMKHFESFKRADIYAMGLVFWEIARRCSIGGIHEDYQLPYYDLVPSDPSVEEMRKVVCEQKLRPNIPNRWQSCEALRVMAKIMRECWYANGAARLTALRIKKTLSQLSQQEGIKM
Briefly: In-vitro (enzyme) kinase assay, 384-well flashplate (Example 36). The format is biochemical. Particulars: GST-ALK5, GST-SMAD2 substrate, 3 mM ATP, 30° C., 45 min; read-out: TβR activity (Example 36). Put shortly: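 Radiometric flashplate assay: 31.2 nM GST-ALK5 phosphorylating 439 nM GST-SMAD2 with 3 mM ATP plus ³³P-ATP, in HEPES/MgCl2/MnCl2/DTT/BSA buffer pH 7.4, 45 min at 30 °C, 5-10 compound concentrations. EDTA stop, filtration and washing, then radioactivity counted; IC50 derived from the curve.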

Test [2] deals with TGF-beta-induced phosphorylation of Smad2 and Smad3 in Mv1-Lu cells. Kind of test: Inhibition of Smad2/3 phosphorylation in Mv1Lu cells (Example 35A). The format is cell-based, mink Mustela vison. Particulars: Neogale vison, Mv1-Lu cells, TGF-beta 1 5 ng/ml, phospho-Smad2/3 ELISA, read-out: TβR activity (Example 35A). Put shortly:
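Serum-starved (16-20 h) Mv1-Lu mink lung epithelial cells were pre-incubated 1.5 h with compound dilutions (0.2% DMSO), then stimulated 1 h with 5 ng/ml TGF-beta 1. Phospho-Smad2 (Ser465/467)/Smad3 (Ser423/425) in lysates was measured by ELISA. IC50 came from dose-response fits between stimulated and unstimulated controls.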

`Fc1ccc(C(F)(F)F)cc1-c1cc(-c2cncc(-c3cnn(CCN4CCCC4)c3)c2)c2cccnc2n1` [compound 19, 2-(2-Fluoro-5-trifluoromethyl-phenyl)-4-{5-[1-(2-pyrrolidin-1-yl-ethyl)-1H-pyrazol-4-yl]-pyridin-3-yl}-[1,8]naphthyridine]: the IC50 in test [1] and in test [2] was below 100 nM each time.

As to `CN1CCC(NC(=O)c2cccc(-c3cncc(-c4cc(-c5cc(Cl)ccc5F)nc5ncccc45)c3)c2)CC1` [compound 126, 3-{5-[2-(5-Chloro-2-fluoro-phenyl)-[1,8]naphthyridin-4-yl]-pyridin-3-yl}-N-(1-methyl-piperidin-4-yl)-benzamide], the IC50 in test [1] and in test [2] was 100 to 1000 nM in each case.

`Fc1ccc(Cl)cc1-c1cc(-c2cncc(-c3cccc(OCCN4CCCC4)c3)c2)c2cccnc2n1` [compound 158, 2-(5-Chloro-2-fluoro-phenyl)-4-{5-[3-(2-pyrrolidin-1-yl-ethoxy)-phenyl]-pyridin-3-yl}-[1,8]naphthyridine]: the IC50 in test [1] and in test [2] was below 100 nM throughout.

`CC(=O)N1CCc2cc(-c3cncc(-c4cc(-c5cc(Cl)ccc5F)nc5ncccc45)c3)ccc21` [compound 164, 1-(5-{5-[2-(5-Chloro-2-fluoro-phenyl)-[1,8]naphthyridin-4-yl]-pyridin-3-yl}-2,3-dihydro-indol-1-yl)-ethanone]: the IC50 in test [1] and in test [2] was below 100 nM throughout.

As for `Fc1ccc(Cl)cc1-c1cc(-c2cncc(-c3cccc4c3CCNC4)c2)c2cccnc2n1` [compound 168, 2-(5-Chloro-2-fluoro-phenyl)-4-[5-(1,2,3,4-tetrahydro-isoquinolin-5-yl)-pyridin-3-yl]-[1,8]naphthyridine], the IC50 in test [1] and in test [2] was 1000 to 10000 nM each time.

On to `OCCN(CCO)c1cccc(-c2cncc(-c3cc(-c4cc(Cl)ccc4F)nc4ncccc34)c2)n1` [compound 170, 2-[{5′-[2-(5-Chloro-2-fluoro-phenyl)-[1,8]naphthyridin-4-yl]-[2,3′]bipyridinyl-6-yl}-(2-hydroxy-ethyl)amino]-ethanol], for which the IC50 in test [1] was below 100 nM; in test [2], 100 to 1000 nM.

For the compound `Cn1cc(-c2cncc(-c3cc(-c4ccc(F)cc4)nc4ncccc34)c2)cn1` [compound 16, 2-(4-Fluoro-phenyl)-4-[5-(1-methyl-1H-pyrazol-4-yl)-pyridin-3-yl]-[1,8]naphthyridine], the IC50 in test [1] lay in the range of 100 to 1000 nM; in test [2], 1000 to 10000 nM.

Turning to `OCCCn1cc(-c2cncc(-c3cc(-c4cc(F)ccc4F)nc4ncccc34)c2)cn1` [compound 89, 3-(4-{5-[2-(2,5-Difluoro-phenyl)-[1,8]naphthyridin-4-yl]-pyridin-3-yl}-pyrazol-1-yl)-propan-1-ol], the IC50 in test [1] is below 100 nM; in test [2] it was 100 to 1000 nM.

Regarding `Fc1ccccc1-c1cc(-c2cncc(-c3cccnc3)c2)c2cccnc2n1` [compound 125, 4-[3,3′]Bipyridinyl-5-yl-2-(2-fluoro-phenyl)-[1,8]naphthyridine], the IC50 in test [1] and in test [2] was 1000 to 10000 nM each time.

In the case of `CNC(=O)c1cccc(-c2cncc(-c3cc(-c4cc(Cl)ccc4F)nc4ncccc34)c2)n1` [compound 127, 5′-[2-(5-Chloro-2-fluoro-phenyl)-[1,8]naphthyridin-4-yl]-[2,3′]bipyridinyl-6-carboxylic acid methylamide], the IC50 was 1000 to 10000 nM in test [1] and above 10000 nM in test [2].

Take `Fc1ccc(Cl)cc1-c1cc(-c2cncc(-c3ccccc3)c2)c2cccnc2n1` [compound 4, 2-(5-Chloro-2-fluoro-phenyl)-4-(5-phenyl-pyridin-3-yl)-[1,8]naphthyridine]: the IC50 in test [1] and in test [2] was 100 to 1000 nM each time.

Take `CN(C)CCc1ccc(-c2cncc(-c3cc(-c4cc(F)ccc4F)nc4ncccc34)c2)cc1` [compound 177, [2-(4-{5-[2-(2,5-Difluoro-phenyl)-[1,8]naphthyridin-4-yl]-pyridin-3-yl}-phenyl)-ethyl]-dimethyl-amine]: the IC50 in test [1] and in test [2] was below 100 nM in each case.

Turning to `Cn1cc(-c2cncc(-c3cc(-c4ccccc4F)nc4ncccc34)c2)cn1` [compound 15, 2-(2-Fluoro-phenyl)-4-[5-(1-methyl-1H-pyrazol-4-yl)-pyridin-3-yl]-[1,8]naphthyridine], the results for the IC50 in test [1] and in test [2] were below 100 nM and 100 to 1000 nM, respectively.

For `NC(=O)COc1ccc(-c2cncc(-c3cc(-c4cc(Cl)ccc4F)nc4ncccc34)c2)cc1` [compound 138, 2-(4-{5-[2-(5-Chloro-2-fluoro-phenyl)-[1,8]naphthyridin-4-yl]-pyridin-3-yl}-phenoxy)-acetamide], the IC50 in test [1] is below 100 nM; in test [2], 100 to 1000 nM.

Turning to `CN1CCC(c2nc(-c3cncc(-c4cc(-c5cc(Cl)ccc5F)nc5ncccc45)c3)no2)CC1` [compound 61, 2-(5-Chloro-2-fluoro-phenyl)-4-{5-[5-(1-methyl-piperidin-4-yl)-[1,2,4]oxadiazol-3-yl]-pyridin-3-yl}-[1,8]naphthyridine], the IC50 is below 100 nM in test [1] and 100 to 1000 nM in test [2].

For `O=C1COc2ccc(-c3cncc(-c4cc(-c5cc(Cl)ccc5F)nc5ncccc45)c3)cc2N1` [compound 131, 6-{5-[2-(5-Chloro-2-fluoro-phenyl)-[1,8]naphthyridin-4-yl]-pyridin-3-yl}-4H-benzo[1,4]oxazin-3-one], the IC50 was below 100 nM in test [1] and 100 to 1000 nM in test [2].

`Nc1ncc(-c2cc(-c3cc(Cl)ccc3F)nc3ncccc23)c2ccncc12` [compound 167, 4-[2-(5-Chloro-2-fluoro-phenyl)-[1,8]naphthyridin-4-yl]-[2,7]naphthyridin-1-ylamine]: the IC50 in test [1] and in test [2] was below 100 nM in each case.

Consider `Fc1ccc(F)c(-c2cc(-c3cncc(-c4cnn(CCCN5CCOCC5)c4)c3)c3cccnc3n2)c1` [compound 48, 2-(2,5-Difluoro-phenyl)-4-{5-[1-(3-morpholin-4-yl-propyl)-1H-pyrazol-4-yl]-pyridin-3-yl}-[1,8]naphthyridine], for which the results for the IC50 in test [1] and in test [2] were below 100 nM and 100 to 1000 nM, respectively.

Take `COCCN1CCC(n2cc(-c3cncc(-c4cc(-c5cc(F)ccc5F)nc5ncccc45)c3)cn2)CC1` [compound 50, 2-(2,5-Difluoro-phenyl)-4-(5-{1-[1-(2-methoxy-ethyl)-piperidin-4-yl]-1H-pyrazol-4-yl}-pyridin-3-yl)-[1,8]naphthyridine]: the IC50 in test [1] and in test [2] was below 100 nM each time.

On to `OCCN1CCC(n2cc(-c3cncc(-c4cc(-c5ccccc5F)nc5ncccc45)c3)cn2)CC1` [compound 53, 2-[4-(4-{5-[2-(2-Fluoro-phenyl)-[1,8]naphthyridin-4-yl]-pyridin-3-yl}-pyrazol-1-yl)-piperidin-1-yl]-ethanol], for which the IC50 in test [1] and in test [2] was below 100 nM each time.

`CN1CCC(n2cc(-c3cncc(-c4cc(-c5cc(F)ccc5F)nc5ncccc45)n3)cn2)CC1` [compound 62, 2-(2,5-Difluoro-phenyl)-4-{6-[1-(1-methyl-piperidin-4-yl)-1H-pyrazol-4-yl]-pyrazin-2-yl}-[1,8]naphthyridine]: the IC50 in test [1] and in test [2] was below 100 nM each time.

Turning to `CN1CCC(n2cc(-c3cncc(-c4cc(-c5cc(Cl)ccc5F)nc5ncccc45)n3)cn2)CC1` [compound 51, 2-(5-Chloro-2-fluoro-phenyl)-4-{6-[1-(1-methyl-piperidin-4-yl)-1H-pyrazol-4-yl]-pyrazin-2-yl}-[1,8]naphthyridine], the IC50 in test [1] and in test [2] was below 100 nM throughout.

`CN1CC[C@H](n2cc(-c3cncc(-c4cc(-c5cc(Cl)ccc5F)nc5ncccc45)c3)cn2)C1` [compound 68, 2-(5-Chloro-2-fluoro-phenyl)-4-{5-[1-((S)-1-methyl-pyrrolidin-3-yl)-1H-pyrazol-4-yl]-pyridin-3-yl}-[1,8]naphthyridine]: the IC50 in test [1] and in test [2] was below 100 nM in each case.

Turning to `Fc1ccc(Cl)cc1-c1cc(-c2cncc(-c3ccc4c(c3)CCN4)c2)c2cccnc2n1` [compound 154, 2-(5-Chloro-2-fluoro-phenyl)-4-[5-(2,3-dihydro-1H-indol-5-yl)-pyridin-3-yl]-[1,8]naphthyridine], the values for the IC50 in test [1] and in test [2] were 100 to 1000 nM and 1000 to 10000 nM, respectively.

On to `Cn1cc(-c2cc(-c3cc(-c4cc(Cl)ccc4F)nc4ncccc34)c[n+]([O-])c2)cn1` [compound 22, 2-(5-chloro-2-fluoro-phenyl)-4-[5-(1-methyl-1H-pyrazol-4-yl)-1-oxy-pyridin-3-yl]-[1,8]naphthyridine], for which the IC50 in test [1] and in test [2] was 1000 to 10000 nM in each case.

Source of the values: patent publication US8912216B2, “Hetaryl-[1,8]naphthyridine derivatives” (Merck Patent GmbH, priority 2010, dated 2014).
